According to US20130345215A1, “PYRAZOLOPYRIMIDONE AND PYRAZOLOPYRIDONE INHIBITORS OF TANKYRASE” (Genentech, Inc., priority 2012, published 2013):

system: Wnt stimulated TCF transcriptional activity, HEK293-TS 112 TCF reporter cell line; assay: Tankyrase 1 Assay (Example 119): Wnt3A-stimulated TOPbrite TCF luciferase reporter; assay type: cell-based; conditions: Compounds I-59 to I-144, procedure in Example 119 (0.5 ug/mL Wnt3A, 16 hours); read-out: TNKS1 (IC50)
Experimental: Inhibition of the Wnt stimulated TCF transcriptional activity by tankyrase inhibitors was determined utilizing a HEK293-TS 112 TCF reporter cell line. A Wnt-responsive luciferase reporter named TOPbrite was constructed by cloning the enhancer element of Super8xTOPFlash containing eight TCF/LEF binding sites into the pGL4.28 vector (Promega) upstream of the minimal promoter element, and selecting for hygromycin B resistance (50 μg/ml). Cells were seeded into 384-well plates in the presence of 0.5 ug/mL of Wnt3A at a density of 20,000 cells per well in 25 ul of F:12 DMEM media supplemented with 10% FBS and 2 mM Glutamax. Cells seeded without the addition of Wnt3A were used as background signal. Compounds of various concentrations were added to cells and incubated at 37 degrees with 5% CO2 for 16 hours. The assay was terminated with the addition of Promega Dual Glo kit per manufacturer's instructions. A ratio of TOPbrite Firefly Luciferase and SV40 Renillla Luciferase was calculated and the background from the neutral wells was subtracted yielding the final normalized measurement of TCF transcriptional activity. Compound IC50s were determined by four-parameter curve fitting using GeneData software.

First: Cn1ncc2c(=O)[nH]c(N3CCC(C(=O)N4CCCC4)CC3)nc21 [Compound I-129, 1-methyl-6-[4-(pyrrolidine-1-carbonyl)-1-piperidyl)-5H-pyrazolo[3 4-d]pyrimidin-4-one]
Second: Cn1ncc2c(=O)[nH]c(N3CCN(c4c(F)cc(OC5CCOCC5)cc4F)CC3)nc21 [Compound I-76, 6-[4-(2 6-difluoro-4-tetrahydropyran-4-yloxy-phenyl)piperazin-1-yl]-1-methyl-5H-pyrazolo[3 4-d]pyrimidin-4-one]
The IC50 of the first is 25-fold higher: 274 nM for the first, 11.1 nM for the second. The second is the more potent here.

Going from Cn1ncc2c(=O)[nH]c(N3CCC(C)(c4ccn(CC(C)(C)O)n4)CC3)nc21 [Compound I-127, 6-[4-[1-(2-hydroxy-2-methyl-propyl)pyrazol-3-yl)-4-methyl-1-piperidyl]-1-methyl-5H-pyrazolo[3 4-d]pyrimidin-4-one] to Cn1ncc2c(=O)[nH]c(-c3ccc(S(C)(=O)=O)cc3)nc21 [Compound I-102, 1-methyl-6-(4-methylsulfonylphenyl)-5H-pyrazolo[3 4-d]pyrimidin-4-one], the IC50 falls from 223 nM to 47.9 nM (4.7-fold).

Going from COCCOc1cc(F)c(N2CCN(c3nc4c(cnn4CCO)c(=O)[nH]3)CC2)c(F)c1 [Compound I-94, 6-[4-[2 6-difluoro-4-(2-methoxyethoxy)phenyl]piperazin-1-yl]-1-(2-hydroxyethyl)-5H-pyrazolo[3 4-d]pyrimidin-4-one] to Cn1ncc2c(=O)[nH]c(N3CCN(c4c(F)cc(OC5CCS(=O)(=O)CC5)cc4F)CC3)nc21 [Compound I-70, 6-[4-[4-(1 1-dioxothian-4-yl)oxy-2 6-difluoro-phenyl]piperazin-1-yl]-1-methyl-5H-pyrazolo[3 4-d]pyrimidin-4-one], the IC50 falls from 264 nM to 7.9 nM (33-fold).

First: COCCOc1cc(F)c(N2CCN(c3nc4[nH]ncc4c(=O)[nH]3)CC2)c(F)c1 [Compound I-77, 6-[4-[2 6-difluoro-4-(2-methoxyethoxy)phenyl]piperazin-1-yl]-1 5-dihydropyrazolo[3 4-d]pyrimidin-4-one]
Second: CC(C)n1ccc(C2(C)CCN(c3nc4c(cnn4C)c(=O)[nH]3)CC2)n1 [Compound I-119, 6-[4-(1-isopropylpyrazol-3-yl)-4-methyl-1-piperidyl]-1-methyl-5H-pyrazolo[3 4-d]pyrimidin-4-one]
The IC50 of the first is 11-fold lower: 11.8 nM for the first, 124 nM for the second. The first is the more potent here.

Going from Cn1cncc1C1CCN(c2nc3c(cnn3C)c(=O)[nH]2)CC1 [Compound I-100, 1-methyl-6-[4-(3-methylimidazol-4-yl)-1-piperidyl]-5H-pyrazolo[3 4-d]pyrimidin-4-one] to Cn1ncc2c(=O)[nH]c(N3CCC(Cc4ccncc4)C3)nc21 (centres unmarked) [Compound I-138, 1-methyl-6-[3-(4-pyridylmethyl)pyrrolidin-1-yl]-5H-pyrazolo[3 4-d]pyrimidin-4-one], the IC50 rises from 43.8 nM to 536 nM (12-fold).

First: Cn1ncc2c(=O)[nH]c(N3CCC(c4nc(-c5cnccn5)no4)CC3)nc21 [Compound I-106, 1-methyl-6-[4-(3-pyrazin-2-yl-1 2 4-oxadiazol-5-yl)-1-piperidyl]-5H-pyrazolo[3 4-d]pyrimidin-4-one]
Second: CCCn1ccc(C2(C)CCN(c3nc4c(cnn4C)c(=O)[nH]3)CC2)n1 [Compound I-98, 1-methyl-6-[4-methyl-4-(1-propylpyrazol-3-yl)-1-piperidyl]-5H-pyrazolo[3 4-d]pyrimidin-4-one]
The IC50 of the first is 1.7-fold higher: 64.1 nM for the first, 37.4 nM for the second. The second is the more potent here.

First: Cn1ncc2c(=O)[nH]c(N3CCN([C@H]4CC[C@H](O)CC4)CC3)nc21 [Compound I-120, 6-[4-(4-hydroxycyclohexyl)piperazin-1-yl]-1-methyl-5H-pyrazolo[3 4-d]pyrimidin-4-one]
Second: Cn1ncc2c(=O)[nH]c(N3CCC(Cc4ncccn4)C3)nc21 (centres unmarked) [Compound I-133, 1-methyl-6-[3-(pyrimidin-2-ylmethyl)pyrrolidin-1-yl]-5H-pyrazolo[3 4-d]pyrimidin-4-one]
The IC50 of the first is 2.2-fold lower: 153 nM for the first, 337 nM for the second.

Compared with Cn1cncc1C1CCN(c2nc3c(cnn3C)c(=O)[nH]2)C1 (centres unmarked) [Compound I-114, 1-methyl-6-[3-(3-methylimidazol-4-yl)pyrrolidin-1-yl]-5H-pyrazolo[3 4-d]pyrimidin-4-one], COCCOc1cc(F)c(N2CCN(c3nc4c(cnn4CC(C)O)c(=O)[nH]3)CC2)c(F)c1 (centres unmarked) [Compound I-126, 6-[4-[2 6-difluoro-4-(2-methoxyethoxy)phenyl]piperazin-1-yl]-1-(2-hydroxypropyl)-5H-pyrazolo[3 4-d]pyrimidin-4-one] is 2.4-fold higher in IC50: 90.3 nM for the first, 220 nM for the second.

Going from COC(C)c1cc(F)c(N2CCN(c3nc4c(cnn4C)c(=O)[nH]3)CC2)c(F)c1 (centres unmarked) [Compound I-71, 6-[4-[2 6-difluoro-4-(1-methoxyethyl)phenyl]piperazin-1-yl]-1-methyl-5H-pyrazolo[3 4-d]pyrimidin-4-one] to Cn1ncc2c(=O)[nH]c(N3CCN(CC4CCOCC4)CC3)nc21 [Compound I-116, 1-methyl-6-[4-(tetrahydropyran-4-ylmethyl)piperazin-1-yl]-5H-pyrazolo[3 4-d]pyrimidin-4-one], the IC50 rises from 8.3 nM to 112 nM (13-fold).

Going from Cn1ncc2c(=O)[nH]c(N3CCN(c4c(F)cc(CC(O)CO)cc4F)CC3)nc21 (centres unmarked) [Compound I-66, 6-[4-[4-(2 3-dihydroxypropyl)-2 6-difluoro-phenyl]piperazin-1-yl]-1-methyl-5H-pyrazolo[3 4-d]pyrimidin-4-one] to O=c1[nH]c(N2CCN(c3c(F)cccc3F)CC2)nc2[nH]ncc12 [Compound I-80, 6-[4-(2 6-difluorophenyl)piperazin-1-yl]-1 5-dihydropyrazolo[3 4-d]pyrimidin-4-one], the IC50 rises from 6.6 nM to 14 nM (2.1-fold).

Going from Cn1ncc2c(=O)[nH]c(N3CCN(C4CC5CCC4C5)CC3)nc21 (centres unmarked) [Compound I-103, 1-methyl-6-(4-norbornan-2-ylpiperazin-1-yl)-5H-pyrazolo[3 4-d]pyrimidin-4-one] to COCCOc1cc(F)c(C2(C#N)CCN(c3nc4c(cnn4C)c(=O)[nH]3)CC2)c(F)c1 [Compound I-86, 4-[2 6-difluoro-4-(2-methoxyethoxy)phenyl]-1-(1-methyl-4-oxo-5H-pyrazolo[3 4-d]pyrimidin-6-yl)piperidine-4-carbonitrile], the IC50 falls from 50.2 nM to 18.5 nM (2.7-fold).

First: 6-[4-(3-fluorophenyl)-1- piperidyl]-1-methyl-5H- pyrazolo[3 4-d]pyrimidin- 4-one [Compound I-84]
Second: Cn1ncc2c(=O)[nH]c(N3CCN([C@H]4CC[C@@H](O)CC4)CC3)nc21 [Compound I-124, 6-[4-(4-hydroxycyclohexyl)piperazin-1-yl]-1-methyl-5H-pyrazolo[3 4-d]pyrimidin-4-one]
The IC50 of the first is 10-fold lower: 17 nM for the first, 171 nM for the second. The first is the more potent here.

CCn1ccc(C2(C)CCN(c3nc4c(cnn4C)c(=O)[nH]3)CC2)n1 [Compound I-92, 6-[4-(1-ethylpyrazol-3-yl)-4-methyl-1-piperidyl]-1-methyl-5H-pyrazolo[3 4-d]pyrimidin-4-one] and Cn1ccc(C2(C)CCN(c3nc4c(cnn4C)c(=O)[nH]3)CC2)n1 [Compound I-90, 1-methyl-6-[4-methyl-4-(1-methylpyrazol-3-yl)-1-piperidyl]-5H-pyrazolo[3 4-d]pyrimidin-4-one] are within 1.5-fold of each other in IC50: 24.5 nM for the first, 23.6 nM for the second.

Compared with CC(C)[C@H](N)C(=O)OCCOc1cc(F)c(N2CCN(c3nc4c(cnn4C)c(=O)[nH]3)CC2)c(F)c1 [Compound I-61, 2-[3 5-difluoro-4-[4-(1-methyl-4-oxo-5H-pyrazolo[3 4-d]pyrimidin-6-yl)piperazin-1-yl]phenoxy]ethyl (2S)-2-amino-3-methyl-butanoate], Cn1ncc2c(=O)[nH]c(N3CCC(C)(c4cc[nH]n4)CC3)nc21 [Compound I-82, 1-methyl-6-[4-methyl-4-(1H-pyrazol-3-yl)-1-piperidyl]-5H-pyrazolo[3 4-d]pyrimidin-4-one] is 3.6-fold higher in IC50: 4.2 nM for the first, 15.1 nM for the second.

Going from Cn1cnnc1C1CCN(c2nc3c(cnn3C)c(=O)[nH]2)CC1 [Compound I-122, 1-methyl-6-[4-(4-methyl-1 2 4-triazol-3-yl)-1-piperidyl]-5H-pyrazolo[3 4-d]pyrimidin-4-one] to Cn1nccc1C1(C)CCN(c2nc3c(cnn3C)c(=O)[nH]2)CC1 [Compound I-96, 1-methyl-6-[4-methyl-4-(2-methylpyrazol-3-yl)-1-piperidyl)-5H-pyrazolo[3 4-d]pyrimidin-4-one], the IC50 falls from 163 nM to 28.4 nM (5.7-fold). The second is the more potent here.

First: Cn1ncc2c(=O)[nH]c(N3CCC(S(=O)(=O)CC4CCCCC4)CC3)nc21 [Compound I-135, 6-[4-(cyclohexylmethylsulfonyl)-1-piperidyl]-1-methyl-5H-pyrazolo[3 4-d]pyrimidin-4-one]
Second: CC(O)Cn1ccc(C2(C)CCN(c3nc4c(cnn4C)c(=O)[nH]3)CC2)n1 (centres unmarked) [Compound I-99, 6-[4-[1-(2-hydroxypropyl)pyrazol-3-yl]-4-methyl-1-piperidyl]-1-methyl-5H-pyrazolo[3 4-d]pyrimidin-4-one]
The IC50 of the first is 9.7-fold higher: 406 nM for the first, 41.9 nM for the second. The second is the more potent here.

Cn1ncc2c(=O)[nH]c(N3CCC(c4ccncc4)CC3)nc21 [Compound I-109, 1-methyl-6-[4-(4-pyridyl)-1-piperidyl)-5H-pyrazolo[3 4-d]pyrimidin-4-one] and CCS(=O)(=O)c1ccc(-c2nc3c(cnn3C)c(=O)[nH]2)cc1 [Compound I-107, 6-(4-ethylsulfonylphenyl)-1-methyl-5H-pyrazolo[3 4-d]pyrimidin-4-one] are within 1.5-fold of each other in IC50: 80.6 nM for the first, 68.1 nM for the second.

In the case of Cn1ncc2c(=O)[nH]c(N3CCN(c4c(F)cc(OC(CO)CCl)cc4F)CC3)nc21 (centres unmarked) [Compound I-64, 6-[4-[4-[1-(chloromethyl)-2-hydroxy-ethoxy]-2 6-difluoro-phenyl]piperazin-1-yl]-1-methyl-5H-pyrazolo[3 4-d]pyrimidin-4-one], the IC50 is reported as 6.4 nM.
